Literature values in patent US8007545B2, “Deodorant compositions” (Kao Corporation, priority 2005, dated 2011).

Settings: 1-octanol/water; actual database value or C log P

log P	SMILES
1.1	CCCCCCOC(CO)COCC(O)CO (stereo not drawn) [b3-1, Glyceryl ether monohexyl ether]
2.0	CCCCC(CC)COCC(O)CO (stereo not drawn) [b3-2, 2-Ethylhexyl monoglyceryl ether]
0.6	CCCCOCCOCCO [b3-3, Diethylene glycol monobutyl ether]
